How the values were obtained:
[1] = tested on: apolipoprotein (Apo) A1 transgenic mice; assay: TG decrease and HDL-C increase in Apo A1 transgenic mice; type: in vivo; conditions: versus fenofibrate
European patients = assay: Study K-877-201, Phase 2 dose-finding study conducted in Europe; type: in vivo, human
Experimental: In previous clinical trials, pemafibrate has been administered at doses ranging from 0.1 mg to 1.6 mg per day in healthy adults. Doses up to 0.4 mg per day have been administered in patients with dyslipidemia. […] Increases in LDL-C, both by beta quantification and calculation with the Friedewald equation, were also observed. Based on analysis of efficacy variables, pemafibrate appeared to have a lowering effect on Apo C3 that led to the conversion of VLDL particles to LDL particles, increasing the fraction of larger LDL particles, and reducing TG levels. Similarly, the reduction of Apo C3 led to increased removal of remnant-like particles and lowering of Apo B48. […] The observed increases in Apo A1 and HDL-C resulted from both increased production of Apo A1 in the liver and increased turnover of TG-rich lipoproteins, both of which were associated with a decreased CHD risk.

[2] = tested on: organic anion-transporting polypeptide (OATP); assay: Drug-drug interaction with strong OATP inhibitors
[3] = baseline to Week 12, last observation carried forward

CC[C@@H](Oc1cccc(CN(CCCOc2ccc(OC)cc2)c2nc3ccccc3o2)c1)C(=O)O [Pemafibrate, (2R)-2-[3-({1,3-benzoxazol-2-yl[3-(4-methoxyphenoxy)propyl]amino}methyl)phenoxy]butanoic acid]
potency in decreasing TG and increasing HDL-C [1]: more potent than fenofibrate
placebo-adjusted TG reduction (European patients; 0.2 mg twice daily): 54.4%
Apo A1 change (European patients; [3]): increases
Apo A2 change (European patients; [3]): increases
Apo B48 change (European patients; [3]): decreases
Apo C2 change (European patients; [3]): decreases
Apo C3 change (European patients; [3]): decreases
FGF21 change (European patients; [3]): increases
HDL-C change (European patients; [3]): increases
VLDL-C change (European patients; [3]): decreases
LDL-C change (European patients; by beta quantification and Friedewald equation): Increases
non-HDL-C change (European patients; in vivo): decrease
total Apo B levels change (European patients; in vivo): no changes
efficacy in TG reduction and HDL-C elevation (European patients; twice daily compared to once daily): Greater efficacy
interaction with strong OATP inhibitors (e.g., cyclosporine and rifampin) [2]: interact

Source: patent publication US11446282B2, “Methods of treating mixed dyslipidemia and hypertriglycertdemia” (Kowa Company, Ltd., priority 2017, dated 2022)
